Experimental data from article PMC6272685, “Docking and Antiherpetic Activity of 2-Aminobenzo[de]-isoquinoline-1,3-diones” (Molecules, 2015).
Values after ≈ are worked out from the molar mass of the structure shown. Where two headings read alike, the source gives them in different places.

Tests used:
[1] = test system: HSV-2; assay: cytopathic effect inhibition assay against HSV-2 in Vero cells; format: cell-based, herpes simplex virus 2 (G strain); details: 48 h, read-out: HSV-2 EC50
Method: (§1) Vero cells (derived from the kidney of a normal African green monkey) were obtained from the American Type Culture Collection (ATCC, Manassas, VA, USA). The viral strains used were GHSV-UL46 for HSV-1 and the G strain for HSV-2. The Vero cells were propagated in Dulbecco’s modified Eagle’s medium (DMEM) supplemented with 10% heat-inactivated foetal bovine serum (FBS), 1% L-glutamine, HEPES buffer and 50 µg/mL gentamycin. All cells were maintained at 37 °C in a humidified atmosphere with 5% CO2 and were subcultured two times a week.
(§2) The antiviral screening was performed using a cytopathic effect inhibition assay at the Regional Center for Mycology and Biotechnology (RCMB, Al-Azhar University, Cairo, Egypt). This assay was selected to show specific inhibition of a biological function, that is, a cytopathic effect in susceptible mammalian cells. In brief, monolayers of 10,000 Vero cells adhering at the bottom of the wells in a 96-well microtiter plate were incubated for 24 h at 37 °C in a humidified incubator with 5% CO2. The plates were washed with fresh DMEM and challenged with 10^4 doses of herpes simplex 1 or 2 virus, and then the cultures were simultaneously treated with two-fold serial dilutions of the tested compound, starting from 500 µg/mL and going up to about 2 µg/mL (500, 250, 125, 62.5, …, 1.95 µg/mL) in a fresh maintenance medium; following this, they were incubated at 37 °C for 48 h. An infection control, as well as an untreated Vero cell control were made in the absence of tested compounds. […] Antiviral activity was determined by the inhibition of the cytopathic effect compared to a control, that is, the protection offered by the tested compound to the cells was scored. Three independent experiments were assessed, each containing four replicates per treatment.
(§3) After the incubation period, the media was aspirated, and then the cells were stained with a 1% crystal violet solution for 30 min. Thereafter, all excess stain was removed by rinsing the plates with tap water. The plates were allowed to dry, and then glacial acetic acid (30%) was added to all wells and mixed thoroughly. The absorbance of the plates was measured after gentle shaking on a microplate reader (Tecan Inc., Morrisville, NC, USA), at 590 nm. The viral inhibition rate was calculated as follows: [(ODtv − ODcv)/(ODcd − ODcv)] × 100% where ODtv, ODcv and ODcd indicate the absorbance of the tested compounds with virus-infected cells, the absorbance of the virus control and the absorbance of the cell control, respectively.
EC50 values were determined directly from the curve obtained by plotting the inhibition of the virus yield against the concentration of the samples. The selectivity index (SI) was calculated from the ratio of CC50 to EC50 in order to determine whether each compound had sufficient antiviral activity that exceeded its level of toxicity. This index is referred to as a therapeutic index, and it was also used to determine whether a compound warranted further study.

[2] = cytotoxicity evaluation using viability assay (crystal violet); format: cell-based, African green monkey; details: African green monkey, Vero cells
Method: as §1
The Vero cell lines in the cytotoxicity assay were seeded in 96-well plates at a cell concentration of 1 × 10^4 cells per well in 100 µL of the growth medium. Fresh medium containing different concentrations of the tested sample was added after 24 h of seeding. Serial two-fold dilutions of the tested compound were added to confluent cell monolayers dispensed into 96-well, flat-bottomed microtiter plates (Falcon, Jersey, NJ, USA) using a multichannel pipette. The microtiter plates were incubated at 37 °C in a humidified incubator with 5% CO2 for a period of 48 h. Three wells were used for each concentration of the tested sample. Control cells were incubated without test samples and with or without DMSO. The small percentage of DMSO present in the wells (maximal 0.1%) was not found to affect the experiment.
After the end of the incubation period, the viable cell yield was determined by a colorimetric method. In brief, the process of treatment the media with crystal violet solution and measurement of absorbance at 590 nm using a microplate reader was mentioned above. The absorbance was proportional to the number of surviving cells in the culture plate. All the results were corrected for background absorbance detected in wells without added stain. Treated samples were compared with the cell control in the absence of the tested compounds. All experiments were carried out in triplicate. The cell cytotoxicity effect of each tested compound was calculated.
Statistics were done using a one-way ANOVA test, and the percentage cell viability was calculated using Microsoft Excel®, as follows: % Cell viability = [(Mean Abscontrol− Mean Abstest metabolite)/Mean Abscontrol] × 100 where Abs equals the absorbance at 590 nm. The CC50 was estimated from graphic plots and the STATA statistical analysis package was used for the drawing of the dose response curve, in order to calculate CC50. Concerning antiviral evaluation, all experiments and data analysis were performed in RCMB, Al-Azhar University, Cairo, Egypt.

[3] = test system: HSV-1; assay: cytopathic effect inhibition assay against HSV-1 in Vero cells; format: cell-based, herpes simplex virus 1 (GHSV-UL46); details: Human alphaherpesvirus 1, Vero, 48 h, read-out: HSV-1 EC50
Method: as §1, §2, §3
EC50 values were determined directly from the curve obtained by plotting the inhibition of the virus yield against the concentration of the samples. […] This index is referred to as a therapeutic index, and it was also used to determine whether a compound warranted further study.

NN1C(=O)c2cccc3cccc(c23)C1=O [Parent, 2-amino-1H-benzo[de]isoquinoline-1,3-dione]
EC50 ([1]; Human alphaherpesvirus 2, Vero): > 500 µg/mL
CC50 at 48 h [2]: 320 ± 24 µg/mL (≈ 1510 µM)
EC50 [3]: > 500 µg/mL

Nc1nc2c(ncn2COCCO)c(=O)[nH]1 [Acyclovir, reference compound]
EC50 ([1]; Human alphaherpesvirus 2, Vero cells, cytopathic effect inhibition): 3.4 ± 0.6 µg/mL (≈ 15.1 µM)
CC50 at 48 h [2]: 600 ± 18 µg/mL (≈ 2660 µM)
EC50 [3]: 1.8 ± 0.2 µg/mL (≈ 7.99 µM)
